According to patent publication US12703870B2, “Regulation of root development” (UT-Battelle, LLC, priority 2023, dated 2026):

Tested on: adventitious root formation in control and PtrXB38-OE micro-cuttings
Test: Adventitious root formation of micro-propagated cuttings in ½ MS medium with chemical treatment
Format: in vivo, P. tremula×P. alba ‘INRA 717-1B4’
Method: Plant Growth Conditions: The tissue culture plants were maintained in ½ MS media (½ MS basal salts, 20 g/L sucrose, 1× Gamborg's B5 vitamin mixture, 0.3% Gelzan) supplemented with 0.1 mg/L IBA and grown in growth chambers (16 h:8 h, light:dark) with white fluorescent light (100 μmol m^−2 s^−1) at 22° C. To assess adventitious root development phenotype, 2-3 cm length of shoot tops from 1-month-old tissue culture saplings were excised and placed in fresh medium for root induction. Root number was counted 12 days after subculture. For chemical treatment, filter-sterilized auxin transport inhibitor naphthylphthalamic acid (NPA) and ethylene biosynthesis inhibitor aminoethoxyvinylglycine (AVG) were added in the ½ MS medium.

SMILES: O=C(O)c1ccccc1C(=O)Nc1cccc2ccccc12 [NPA, naphthylphthalamic acid]
- root formation (5 μM NPA, both control and PtrXB38-OE micro-cuttings): completely blocked root formation
- promotive effect of PtrXB38 on AR formation (adventitious root number) (increasing NPA concentrations (0.2 μM and 1 μM, FIG. 3D), PtrXB38-OE plants): gradually attenuated
